Data published in patent US4789681A, “Cytoprotective guanidine derivatives useful in ischemic diseases” (Italfarmaco S.p.A., priority 1985, dated 1988).

Key:
rat (cerebral ischemia) = experiment: In vivo activity in the rat: cerebral ischemia, EEG recovery; settings: 3 mg/kg i.v., 10' before test
Procedure: The model described by Kramer (Kramer W., Tuynmann J. A.; Brain Research 6, 686 (1967)) has been used.
Two electrodes for the bipolar recording of EEG (occipito-cervical and cerebellar area) were applied to rats, anaesthetized with N2 O (70%) and O2 (30%), after i.v. tubocurarine treatment. Ischemia was induced by increasing the intracranial pressure in cisterna magna with artificial C.S.F. and for the duration of 1 minute. EEG was recorded 3' before ischemia, during the first 6 minutes of the recirculation and up to 30' after ischemia. The time for a complete EEG recovering was measured.
The compounds were administered i.v. 10' before test.

rat (cardiac ischemia) = experiment: In vivo activity in the rat: cardiac ischemia and reperfusion by ligation of the left coronary artery; settings: iv, 3 mg/kg, 10' to 30' before ligation
Excerpt: It has been used a cardiac ischemia and reperfusion model, on the anaesthetized rat, by ligation of the left coronary artery as described by C. […] In said model, after the ischemic state induced by the coronary ligation, the reperfusion of the cardiac tissue follows the release of the ligation itself. In said situation tachycardias, extrasystoles ventricular fibrillations are observed, followed, in most cases, by the animal's death.
This applies in both situation: hypoxia and reperfusion.

SMILES	EEG recovery time (rat (cerebral ischemia)) [s]	other results
COC(=O)[C@H](N)c1ccc(NC2=NCCN2)cc1 (single isomer, unassigned) [10a(R), Methyl (R) or (S) 2-amino-2-(4'-imidazolinyl-amino-phenilacetate]	62 ± 8	
CN=C(N)NCCC[C@@H](N)C(=O)OC [2b(R), (R)-N^G -methyl-arginine methylester]		% effects (with respect to controls in the same situation) on death-rate (rat (cardiac ischemia)): 10%; % effects (with respect to controls in the same situation) on fibrillations (rat (cardiac ischemia)): 50%; % effects (with respect to controls in the same situation) on tachycardia V. (rat (cardiac ischemia)): 60%
COC(=O)[C@H](N)CCNNC(=N)N [4a(R), methyl-(R)-2-amino-4-guanidylamino-butyrrate]	58 ± 7	
COC(=O)[C@H](N)[C@H]1CC[C@@H](NC(=N)N)CC1 [7a(R), Methyl (R) (1',4' cis or trans)-2-amino-2-(4'-guanidinocyclohexyl)-acetate]	49 ± 6	
COC(=O)[C@@H](N)[C@H]1CC[C@@H](NC(=N)N)CC1 [7a(S), Methyl (S) (1',4' cis or trans)-2-amino-2-(4'-guanidinocyclohexyl)-acetate]	43 ± 5	
COC(=O)[C@H](N)CCCNC(=N)N [D.A.M., Darginine methylester, reference compound]	45 ± 6	
COC(=O)[C@@H](N)CCCNC(=N)N [L.A.M., Larginine methylester, reference compound]	61 ± 8	
